In brackets after ≈: the same amount, converted by molar mass. Activity calls are given as the source filed them. The rule behind the calls is not given here.
Assays:
Meloidogyne incognita [1] = assay: Nematicidal activity against juvenile stage of Meloidogyne incognita (root-knot nematode) assessed as inhibition of mobility after 20 hr; type: functional
Meloidogyne incognita [2] = assay: Nematicidal activity against juvenile stage of Meloidogyne incognita (root-knot nematode) assessed as inhibition of mobility incubated for 168 hr followed by compound wash out measured after 24 hr; type: functional
Meloidogyne incognita [3] = assay: Nematicidal activity against juvenile stage of Meloidogyne incognita (root-knot nematode) assessed as inhibition of mobility after 168 hr; type: functional
Heterodera schachtii [4] = assay: Nematicidal activity against juvenile stage of Heterodera schachtii assessed as inhibition of mobility after 168 hr; type: functional
Heterodera schachtii [5] = assay: Nematicidal activity against juvenile stage of Heterodera schachtii assessed as inhibition of mobility after 20 hr; type: functional
Heterodera schachtii [6] = assay: Nematicidal activity against juvenile stage of Heterodera schachtii assessed as inhibition of mobility incubated for 168 hr followed by compound wash out measured after 24 hr; type: functional
[7] = Stability of the compound assessed as apperance of pyrroles at 5 mg/mL after 24 to 168 hr by thin layer chromatographic analysis under UV light and hot temperature; type: physicochemical
[8] = Stability of the compound assessed as apperance of pyrroles at 5 mg/mL after 24 to 168 hr by thin layer chromatographic analysis under cold temperature; type: physicochemical
Meloidogyne incognita [9] = assay: Repellent activity against juvenile stage of Meloidogyne incognita (root-knot nematode) at 1 mg/mL after 20 hr by stereomicroscopic analysis (reference value: 50%); type: functional
Rhabditis sp. [10] = assay: Nematicidal activity against juvenile stage of Rhabditis sp. assessed as inhibition of mobility after 20 hr; type: functional, organism-based
[11] = Stability of the compound assessed as apperance of pyrroles at 5 mg/mL after 24 to 168 hr by thin layer chromatographic analysis under UV light and cold temperature; type: physicochemical
Pratylenchus penetrans [12] = assay: Nematicidal activity against juvenile stage of Pratylenchus penetrans assessed as inhibition of mobility after 168 hr; type: functional
Meloidogyne incognita [13] = assay: Repellent activity against juvenile stage of Meloidogyne incognita (root-knot nematode) at 0.1 mg/mL after 40 hr by stereomicroscopic analysis (reference value: 51%); type: functional
[14] = Stability of the compound assessed as conversion of N-oxide to free base at 5 mg/mL after 24 to 168 hr by thin layer chromatographic analysis under UV light and hot temperature; type: physicochemical
[15] = Stability of the compound assessed as apperance of new pyrrolizidine alkaloids at 5 mg/mL after 24 to 168 hr by thin layer chromatographic analysis under UV light and cold temperature; type: physicochemical
Rhabditis sp. [16] = assay: Repellent activity against juvenile stage of Rhabditis sp. at 0.1 mg/mL after 20 hr by stereomicroscopic analysis (reference value: 48%); type: functional
[17] = test system: Phasmarhabditis hermaphrodita; assay: Nematicidal activity against juvenile stage of Phasmarhabditis hermaphrodita of assessed as inhibition of mobility incubated for 168 hr followed by compound wash out measured after 24 hr; type: functional; details: Pellioditis hermaphrodita
Rhabditis sp. [18] = assay: Repellent activity against juvenile stage of Rhabditis sp. at 1 mg/mL after 20 hr by stereomicroscopic analysis (reference value: 48%); type: functional
Rhabditis sp. [19] = assay: Nematicidal activity against juvenile stage of Rhabditis sp. assessed as inhibition of mobility after 168 hr; type: functional
[20] = test system: Phasmarhabditis hermaphrodita; assay: Nematicidal activity against juvenile stage of Phasmarhabditis hermaphrodita of assessed as inhibition of mobility after 168 hr; type: functional
Meloidogyne incognita [21] = assay: Ovicidal activity against Meloidogyne incognita (root-knot nematode) assessed as egg hatching at 1 mg/mL after 336 hr (reference value: 54%); type: functional
Rhabditis sp. [22] = assay: Repellent activity against juvenile stage of Rhabditis sp. at 1 mg/mL after 40 hr by stereomicroscopic analysis (reference value: 50%); type: functional
Pratylenchus penetrans [23] = assay: Nematicidal activity against juvenile stage of Pratylenchus penetrans assessed as inhibition of mobility incubated for 168 hr followed by compound wash out measured after 24 hr; type: functional
Meloidogyne incognita [24] = assay: Repellent activity against juvenile stage of Meloidogyne incognita (root-knot nematode) at 1 mg/mL after 40 hr by stereomicroscopic analysis (reference value: 51%); type: functional
[25] = Stability of the compound assessed as apperance of new pyrrolizidine alkaloids at 5 mg/mL after 24 to 168 hr by thin layer chromatographic analysis under UV light and hot temperature; type: physicochemical
Meloidogyne incognita [26] = assay: Repellent activity against juvenile stage of Meloidogyne incognita (root-knot nematode) at 0.1 mg/mL after 20 hr by stereomicroscopic analysis (reference value: 50%); type: functional
Pratylenchus penetrans [27] = assay: Nematicidal activity against juvenile stage of Pratylenchus penetrans assessed as inhibition of mobility after 20 hr; type: functional
[28] = Stability of the compound assessed as conversion of N-oxide to free base at 5 mg/mL after 24 to 168 hr by thin layer chromatographic analysis under cold temperature; type: physicochemical
Rhabditis sp. [29] = assay: Repellent activity against juvenile stage of Rhabditis sp. at 0.1 mg/mL after 40 hr by stereomicroscopic analysis (reference value: 50%); type: functional
[30] = Stability of the compound assessed as conversion of N-oxide to free base at 5 mg/mL after 24 to 168 hr by thin layer chromatographic analysis under UV light and cold temperature; type: physicochemical
[31] = Stability of the compound assessed as apperance of new pyrrolizidine alkaloids at 5 mg/mL after 24 to 168 hr by thin layer chromatographic analysis under cold temperature; type: physicochemical
[32] = Stability of the compound assessed as conversion of N-oxide to free base at 5 mg/mL after 24 to 168 hr by thin layer chromatographic analysis under hot temperature; type: physicochemical
[33] = test system: Phasmarhabditis hermaphrodita; assay: Nematicidal activity against juvenile stage of Phasmarhabditis hermaphrodita of assessed as inhibition of mobility after 20 hr; type: functional, organism-based
Meloidogyne incognita [34] = assay: Ovicidal activity against Meloidogyne incognita (root-knot nematode) assessed as egg hatching at 1 mg/mL after 24 hr (reference value: 3%); type: functional
[35] = Stability of the compound assessed as apperance of pyrroles at 5 mg/mL after 24 to 168 hr by thin layer chromatographic analysis under hot temperature; type: physicochemical
[36] = Stability of the compound assessed as apperance of new pyrrolizidine alkaloids at 5 mg/mL after 24 to 168 hr by thin layer chromatographic analysis under hot temperature; type: physicochemical
[37] = Stability of the compound assessed as apperance of new pyrrolizidine alkaloids at 5 mg/mL after 166 hr by thin layer chromatographic analysis under hot temperature; type: physicochemical
[38] = Stability of the compound assessed as conversion of free base to N-oxide at 5 mg/mL after 24 to 168 hr by thin layer chromatographic analysis under UV light and cold temperature; type: physicochemical
[39] = Stability of the compound assessed as apperance of new pyrrolizidine alkaloids at 5 mg/mL after 166 hr by thin layer chromatographic analysis under cold temperature; type: physicochemical
[40] = Stability of the compound assessed as conversion of free base to N-oxide at 5 mg/mL after 24 to 168 hr by thin layer chromatographic analysis under UV light and hot temperature; type: physicochemical
[41] = Stability of the compound assessed as conversion of free base to N-oxide at 5 mg/mL after 24 to 168 hr by thin layer chromatographic analysis under hot temperature; type: physicochemical
[42] = Stability of the compound assessed as conversion of free base to N-oxide at 5 mg/mL after 24 to 168 hr by thin layer chromatographic analysis under cold temperature; type: physicochemical
[43] = Stability of the compound assessed as apperance of new pyrrolizidine alkaloids at 5 mg/mL after 24 hr by thin layer chromatographic analysis under cold temperature; type: physicochemical
[44] = Stability of the compound assessed as apperance of pyrroles at 5 mg/mL after 166 hr by thin layer chromatographic analysis under hot temperature; type: physicochemical
[45] = Stability of the compound assessed as apperance of new pyrrolizidine alkaloids at 5 mg/mL after 24 hr by thin layer chromatographic analysis under hot temperature; type: physicochemical
[46] = Stability of the compound assessed as apperance of pyrroles at 5 mg/mL after 24 hr by thin layer chromatographic analysis under hot temperature; type: physicochemical

Row | Compound | MIC50 (Meloidogyne incognita [1]) | MIC50 (Meloidogyne incognita [2]) | MIC50 (Meloidogyne incognita [3]) | MIC50 (Heterodera schachtii [4]) | MIC50 (Heterodera schachtii [5]) | MIC50 (Heterodera schachtii [6]) | Stability [7] | Repellency (Meloidogyne incognita [9]) | MIC50 (Rhabditis sp. [10]) | Stability [11] | MIC50 (Pratylenchus penetrans [12]) | Repellency (Meloidogyne incognita [13]) | Stability [15] | Repellency (Rhabditis sp. [16]) | Repellency (Rhabditis sp. [18]) | MIC50 (Rhabditis sp. [19]) | Activity (Meloidogyne incognita [21]) | Repellency (Rhabditis sp. [22]) | MIC50 (Pratylenchus penetrans [23]) | Repellency (Meloidogyne incognita [24]) | other results
1 | C/C=C(/C)C(=O)O[C@H]1CCN2CC=C(COC(=O)[C@](O)([C@H](C)OC)C(C)(C)O)[C@H]12 [LASIOCARPINE] | inactive | 1000 µg/mL (≈ 2.43 mM) | 500 µg/mL (≈ 1.22 mM) | 3800 µg/mL (≈ 9.23 mM) | inactive | 1000 µg/mL (≈ 2.43 mM) |  |  |  |  |  |  |  |  |  |  |  |  |  |  | 
2 | C[C@H]1C(=O)O[C@@H]2CC[N+]3([O-])CC=C(COC(=O)[C@](C)(O)[C@]1(C)O)[C@H]23 (stereo not given in full) [MONOCROTALINE N-OXIDE] | inactive | inactive | inactive | 700 µg/mL (≈ 2.05 mM) | inactive | 37100 µg/mL (≈ 109 mM) | Stable | 54% | inactive | Stable | inactive | 51% | Stable | 89% | 95% | 21200 µg/mL (≈ 62.1 mM) | 16% | 100% | inactive | 56% | Stability [8]: Stable; Stability [14]: Stable; MIC50 [17]: 17500 µg/mL (≈ 51.3 mM); MIC50 ([20]; Pellioditis hermaphrodita): 13700 µg/mL (≈ 40.1 mM); Stability [25]: Stable; Repellency (Meloidogyne incognita [26]): 52%; MIC50 (Pratylenchus penetrans [27]): inactive; Stability [28]: Stable; Repellency (Rhabditis sp. [29]): 90%; Stability [30]: Stable; Stability [31]: Stable; Stability [32]: Stable; MIC50 [33]: inactive; Activity (Meloidogyne incognita [34]): 7%; Stability [35]: Stable; Stability [36]: Stable
3 | C[C@H]1C(=O)O[C@@H]2CCN3CC=C(COC(=O)[C@](C)(O)[C@]1(C)O)[C@H]23 [MONOCROTALINE] | 31500 µg/mL (≈ 96.8 mM) | 400 µg/mL (≈ 1.23 mM) | 300 µg/mL (≈ 0.922 mM) | 2000 µg/mL (≈ 6.15 mM) | inactive | 1700 µg/mL (≈ 5.22 mM) | Unstable | 55% | inactive | Unstable | 1800 µg/mL (≈ 5.53 mM) | 52% | Unstable | 45% | 92% | 150 µg/mL (≈ 0.461 mM) | 29% | 93% | 5800 µg/mL (≈ 17.8 mM) | 52% | Stability [37]: Unstable; Stability [38]: Stable; Stability [39]: Unstable; Stability [40]: Stable; Stability [41]: Stable; Stability [42]: Stable; MIC50 [20]: inactive; Stability [43]: Stable; Stability [44]: Unstable; Stability [25]: Unstable; Stability [45]: Stable; Repellency (Meloidogyne incognita [26]): 51%; MIC50 (Pratylenchus penetrans [27]): 25900 µg/mL (≈ 79.6 mM); Repellency (Rhabditis sp. [29]): 49%; MIC50 [33]: inactive; Stability [46]: Stable; Activity (Meloidogyne incognita [34]): 2%
4 | C/C=C1/C[C@@H](C)[C@@](C)(O)C(=O)OCC2=CC[N+]3([O-])CC[C@@H](OC1=O)[C@@H]23 (stereo not given in full) [SENECIONINE N-OXIDE] | inactive | inactive | 2900 µg/mL (≈ 8.25 mM) | 3400 µg/mL (≈ 9.68 mM) | 7200 µg/mL (≈ 20.5 mM) | inactive |  |  |  |  |  |  |  |  |  |  |  |  |  |  | 

Reference: ChEMBL document CHEMBL3044783, “Effects of pyrrolizidine alkaloids on the performance of plant-parasitic and free-living nematodes” (Pest Manag Sci, 2009)
